21 molecules from US11241013B2, “Benzimidazole compounds as agricultural chemicals” (REDAG CROP PROTECTION LTD, priority 2017, dated 2022) can be followed below.

The structures appear in SMILES notation. Where only a bound is given, the exact number is not on record here.

What all share (assay type): cell-based
For one assay, the system named is Pythium ultimum. The experiment in a line: Amended agar assay. More on the design: key to % control Pythium ultimum 2 ppm / % control Pythium ultimum 20 ppm: D: no control detected at this concentration; C: up to 50% control; B: from 50 to 99% control; A: a control of greater than 99%, i.e. no detectable colony growth. The settings on record: for inhibition of growth at 20 ppm / inhibition of growth at 2 ppm: Globisporangium ultimum; for inhibition of growth at 20 ppm / inhibition of growth at 2 ppm / % control Pythium ultimum 20 ppm / % control Pythium ultimum 2 ppm: amended PDA agar, % reduction in colony growth vs control plate, 18° C.; for EC50 Pythium ultimum: amended agar assay, descending concentrations with 5-fold dilutions. The procedure:
(§1) Testing was carried out on potato dextrose agar (PDA) amended with each compound at a test concentration of typically 20 ppm or 2 ppm. Amended agar was poured into three replicate 9 cm petri dishes. Each replicate dish was inoculated in the centre with a 5 mm agar plug taken from the leading edge of a culture aged between 2 and 7 days old; the age of the culture was dependant on the growth rate of the pathogen being tested. The test pathogens were Pythium ultimum and Phytophthora cinnamomi. Plates were incubated at 18° C. and the diameter of each colony measured before growth on the fastest growing plate reached the plate edge. This varied between 2 and 7 days depending on the growth rate of test pathogens. The % reduction in colony growth compared to the control plate was calculated for each pathogen. The results are provided in Table 1, in which D represents no control detected at this concentration; C represents up to 50% control; B from 50 to 99% control; and A represents a control of greater than 99%, i.e. no detectable colony growth.
(§2) Alternatively, or in addition, the same assay was conducted at descending test concentrations with 5-fold dilutions typically down to 0.032 ppm though sometimes as low as 0.00026 ppm, and an EC50 (the concentration at which 50% control would be achieved) was determined. The results are provided in Table 1 in which G represents no control detected at 20 ppm, F represents an EC50 of ≥20 ppm and E represents an EC50 of less than 20 ppm.

The next assay deals with Phytophthora cinnamomi. The experiment in a line: Amended agar assay. More on the design: key to % control Phytophthora cinnamomi 20 ppm: D: no control detected at this concentration; C: up to 50% control; B: from 50 to 99% control; A: a control of greater than 99%, i.e. no detectable colony growth. The settings on record: for % control Phytophthora cinnamomi 20 ppm: amended PDA agar, % reduction in colony growth vs control plate, 18° C.; for EC50 Phytophthora spp. (marked *: Phytophthora cinnamomi): values marked *: amended agar assay, descending concentrations with 5-fold dilutions. How it is done: as §1, §2

For assay [1], the system named is Phytophthora cactorum. The experiment in a line: 96 well plate test. More on the design: key: G: no control detected at 20 ppm; F: an EC50 of ≥20 ppm; an EC50 of less than 20 ppm. The note with it: 96 well plate assay, agar amended to 20, 2, 0.2 and 0.02 ppm, assessed after 2 to 3 days. How it is done: (§3) Compounds were screened in 96 well plates with 10 compounds per plate. Each compound was screened using agar amended to 20, 2, 0.2 and 0.02 ppm, with proline at 50 and 10 ppm and 0.2% DMSO used as controls. Each test concentration and standard was replicated twice on a plate. Compounds were screened against Phytophthora cactorum. The agar used in the test is a 1% potato dextrose agar. 1000 spores/mL agar were added to the appropriate agar. A ×10 stock solution in 2% DMSO was produced for each dose i.e. 200, 20, 2 and 0.2 ppm, and 10 μl of this added to the appropriate wells on the plate. An equivalent amount of 2% DMSO and proline stock at 500 and 100 ppm were added for the controls. To each well 90 μl of the appropriate agar spore suspension was added to give the required final well concentrations. Plates were incubated at room temperature (18° C.) and assessed after 2 to 3 days. The amount of pathogen growth in each well was compared to the DMSO controls and an EC50 concentration was calculated. The results are provided in Table 1 in which H represents no control detected at 20 ppm, G represents no control detected at 2 ppm (where the highest test concentration in the assay was 2 ppm), F represents an EC50 of ≥20 ppm, E represents an EC50 of less than 20 ppm.

Assay [2] has as its system Phytophthora cactorum. The assay is described as follows: 96 well plate test. On the set-up: key: H: no control detected at 20 ppm; G: no control detected at 2 ppm (where the highest test concentration in the assay was 2 ppm); F: an EC50 of ≥20 ppm; an EC50 of less than 20 ppm. The settings on record: 96 well plate assay, agar amended to 20, 2, 0.2 and 0.02 ppm, assessed after 2 to 3 days. The procedure: as §3

As for `Cn1nnnc1-n1c(OCc2cccc(N)n2)nc2ccccc21` [Example 1, 6-(((1-(1-Methyl-1H-tetrazol-5-yl)-1H-benzo[d]imidazol-2-yl)oxy)methyl)pyridin-2-amine], the inhibition of growth (as a rule, the change of the read-out against control, counted positive when it falls) at 20 ppm in the assay on Pythium ultimum is > 99%. For the same molecule, the “% control Phytophthora cinnamomi 20 ppm” value with Phytophthora cinnamomi is on record as “B (from 50 to 99% control)”.

`Cn1nnnc1-n1c(OCc2ccccn2)nc2ccc(F)cc21` [Example 20]: in the assay on Pythium ultimum, the “EC50 Pythium ultimum” value was “E (an EC50 of less than 20 ppm)”. Moreover, in the assay on Phytophthora cinnamomi, the “EC50 Phytophthora spp. (marked *: Phytophthora cinnamomi)” value is recorded as “E* (an EC50 of less than 20 ppm)”.

Regarding `Cn1nnnc1-n1c(OCCc2ccccn2)nc2ccccc21` [Example 25], the inhibition of growth at 2 ppm in the assay with Pythium ultimum was < 50%. Also, the “EC50 Phytophthora spp. (Phytophthora cactorum)” value in the assay with Phytophthora cactorum [1] is on record as “H”.

In the case of `Cc1cccnc1-n1c(OCc2ccccn2)nc2ccccc21` [Example 26], the “% control Pythium ultimum 20 ppm” value in the assay on Pythium ultimum is recorded as “D”. Also, the “% control Phytophthora cinnamomi 20 ppm” value in the assay on Phytophthora cinnamomi was “D”.

Regarding `c1ccc(COc2nc3ccccc3n2-c2ccccn2)nc1` [Example 27], the inhibition of growth at 20 ppm with Pythium ultimum is < 50%. The “% control Phytophthora cinnamomi 20 ppm” value in the assay on Phytophthora cinnamomi is reported as “D”.

Consider `Cn1nnnc1-n1c(OCc2cccc(N)n2)nc2ccc(Br)cc21` [Example 28], for which the “EC50 Pythium ultimum” value with Pythium ultimum is “E (an EC50 of less than 20 ppm)”. In addition, in the assay on Phytophthora cinnamomi, the “EC50 Phytophthora spp. (marked *: Phytophthora cinnamomi)” value is “E* (an EC50 of less than 20 ppm)”.

With `Cn1nnnc1-n1c(OCc2ccccn2)nc2ccccc21` [Example 29], in the assay on Pythium ultimum, the inhibition of growth at 20 ppm is > 99% and the “EC50 Pythium ultimum” value was “E (an EC50 of less than 20 ppm)”. Moreover, in the assay on Phytophthora cinnamomi, the “% control Phytophthora cinnamomi 20 ppm” value is “A (a control of greater than 99%, i.e. no detectable colony growth)” and the “EC50 Phytophthora spp. (marked *: Phytophthora cinnamomi)” value is given as “E* (an EC50 of less than 20 ppm)”.

On to `Cn1nnnc1-n1c(OCc2cccc(NS(C)(=O)=O)n2)nc2ccccc21` [Example 31, N-(6-(((1-(1-Methyl-1H-tetrazol-5-yl)-1H-benzo[d]imidazol-2-yl)oxy)methyl)pyridin-2-yl)methanesulfonamide], for which, in the assay on Pythium ultimum, the “% control Pythium ultimum 20 ppm” value is on record as “D”. The “% control Phytophthora cinnamomi 20 ppm” value in the assay on Phytophthora cinnamomi was “B (from 50 to 99% control)”.

For `Cn1nnnc1-n1c(OCc2cccc(-c3ccccc3)n2)nc2ccccc21` [Example 32, 1-(1-Methyl-1H-tetrazol-5-yl)-2-((6-phenylpyridin-2-yl)methoxy)-1H-benzo[d]imidazole], the inhibition of growth at 2 ppm with Pythium ultimum was < 50%. Further, the “EC50 Phytophthora spp. (Phytophthora cactorum)” value in the assay on Phytophthora cactorum [1] is reported as “H”.

With `Clc1cncnc1-c1c(OCc2ccccn2)[nH]c2ccccc12` [Example 33, 3-(5-Chloropyrimidin-4-yl)-2-(pyridin-2-ylmethoxy)-1H-indole], the inhibition of growth at 20 ppm in the assay with Pythium ultimum is < 50%. For the same molecule, in the assay with Phytophthora cinnamomi, the “% control Phytophthora cinnamomi 20 ppm” value was “B (from 50 to 99% control)”.

Take `Cn1nnnc1-n1c(COc2ccccn2)nc2ccccc21` [Example 34, 1-(1-Methyl-1H-tetrazol-5-yl)-2-((pyridin-2-yloxy)methyl)-1H-benzo[d]imidazole]: in the assay on Pythium ultimum, the “% control Pythium ultimum 2 ppm” value was “D”. The “EC50 Phytophthora spp. (Phytophthora cactorum)” value with Phytophthora cactorum [1] is on record as “H”.

As for `Cn1nnnc1-n1c(OCc2cccc(NCc3cccnc3)n2)nc2ccccc21` [Example 41], in the assay with Pythium ultimum, the “% control Pythium ultimum 2 ppm” value was “D”. Also, the “EC50 Phytophthora spp. (Phytophthora cactorum)” value with Phytophthora cactorum [2] was “G”.

`Cn1nnnc1-n1c(OCc2cccc(NCc3ccc(C#N)cc3)n2)nc2ccccc21` [Example 46] registered an inhibition of growth at 2 ppm in the assay with Pythium ultimum of 50 to 99%. The “EC50 Phytophthora spp. (Phytophthora cactorum)” value with Phytophthora cactorum [2] is “G”.

Regarding `CN(C)c1cccc(COc2nc3ccccc3n2-c2nnnn2C)n1` [Example 49, N,N-Dimethyl-6-(((1-(1-methyl-1H-tetrazol-5-yl)-1H-benzo[d]imidazol-2-yl)oxy)methyl)pyridin-2-amine], in the assay on Pythium ultimum, the “% control Pythium ultimum 2 ppm” value is on record as “D”. Moreover, the “EC50 Phytophthora spp. (Phytophthora cactorum)” value in the assay with Phytophthora cactorum [1] is “H”.

Take `COc1cccc(COc2nc3ccccc3n2-c2nnnn2C)n1` [Example 52]: in the assay on Pythium ultimum, the “% control Pythium ultimum 2 ppm” value is “D”. For the same molecule, the “EC50 Phytophthora spp. (Phytophthora cactorum)” value in the assay on Phytophthora cactorum [1] is on record as “H”.

On to `CC(C)CCOc1cccc(COc2nc3ccccc3n2-c2nnnn2C)n1` [Example 53], for which the “% control Pythium ultimum 2 ppm” value with Pythium ultimum is “D”. The “EC50 Phytophthora spp. (Phytophthora cactorum)” value with Phytophthora cactorum [1] is “H”.

On to `CSc1cccc(COc2nc3ccccc3n2-c2nnnn2C)n1` [Example 54], for which the “% control Pythium ultimum 2 ppm” value with Pythium ultimum was “D”. The “EC50 Phytophthora spp. (Phytophthora cactorum)” value in the assay with Phytophthora cactorum [1] is reported as “H”.

In the case of `Cn1nnnc1-n1c(OCc2ccc(N)cn2)nc2ccccc21` [Example 57], the “% control Pythium ultimum 2 ppm” value in the assay on Pythium ultimum is given as “D”. Further, the “EC50 Phytophthora spp. (Phytophthora cactorum)” value in the assay on Phytophthora cactorum [1] was “H”.

As for `Cn1nnnc1-n1c(OCc2cccc(S(C)(=O)=O)n2)nc2ccccc21` [Example 58, 1-(1-Methyl-1H-tetrazol-5-yl)-2-((6-(methylsulfonyl)pyridin-2-yl)methoxy)-1H-benzo[d]imidazole], the “% control Pythium ultimum 2 ppm” value with Pythium ultimum was “D”. Also, the “EC50 Phytophthora spp. (Phytophthora cactorum)” value in the assay with Phytophthora cactorum [1] is given as “H”.

On to `Cn1nnnc1-n1c(OCc2ccc3ccccc3n2)nc2c(Cl)cccc21` [Example 67], for which the inhibition of growth at 2 ppm in the assay on Pythium ultimum is > 99%. In the assay on Phytophthora cactorum [2], the “EC50 Phytophthora spp. (Phytophthora cactorum)” value is listed as “G”.

With `COCc1cccc(COc2nc3c(Cl)cccc3n2-c2nnnn2C)n1` [Example 72], the inhibition of growth at 2 ppm in the assay on Pythium ultimum is < 50%. In the assay with Phytophthora cactorum [1], the “EC50 Phytophthora spp. (Phytophthora cactorum)” value was “H”.
